Entries after “also recorded” stand apart in the source; their conditions may differ. Like-named read-outs stand apart in the source and are kept apart here.
Experiments:
[1] = tested on: LRRK2 Ser935 phosphorylation, LRRK2[R1441C]; assay: LRRK2 Ser935 phospho-immunoblot in LRRK2[R1441C] knock-in MEFs; assay type: cell-based, mouse
Description: Wild-type and homozygous LRRK2 [R1441C] (Jax, stock number: 009346), LRRK2[G2019S] Taconic, (model 13940) and LRRK2 [A2016T] (Jax, stock number: 021828)[7] knock-in MEF cells were isolated from littermate-matched mouse embryos on a C57BL/6J background at day E12.5 as described previously. MEFs were grown in Dulbecco's modified Eagle medium (DMEM GIBCO, #11960-085) containing 10% (by vol) fetal bovine serum (FBS), 2 mM L-glutamine, 100 U/ml penicillin, and […] streptomycin supplemented with non-essential amino acids and 1 mM sodium pyruvate. Human embryonic kidney 293 (HEK293) (#ATCC CRL-1573) and HeLa (#ATCC CCL-2) cells were purchased from American Tissue Culture Collection (ATCC) and cultured in DMEM containing 10% (by vol) FBS, 2 mM L-glutamine, 100 U/ml penicillin, and […] streptomycin. All cells were grown at 37°C, 5% (by vol) CO2 in a humidified atmosphere and regularly tested for mycoplasma contamination.
(§1) Inhibitors were dissolved in dimethyl sulfoxide (DMSO) (Sigma, #D2650). The inhibitors were diluted 1000× into cell medium. The equivalent volume of DMSO was added to the minus inhibitor controls. Experiments were performed in six-well plates, 10 cm dishes or 15 cm dishes depending on the amount of cell extract required.
Cells were lysed in an ice-cold lysis buffer containing 50 mM Tris–HCl, pH 7.4, 1% (by vol) Triton X-100, 10% (by vol) glycerol, 150 mM NaCl, 1 mM sodium orthovanadate, 50 mM NaF, 10 mM 2-glycerophosphate, 5 mM sodium pyrophosphate, 1 µg/ml microcystin-LR, and cOmplete EDTA-free protease inhibitor cocktail (Roche, #11836170001). Lysates were incubated on ice for 30 min and clarified by centrifugation at 20 800×g at 4°C for 20 min. Supernatants were quantified by Bradford assay (Bio-Rad Protein Assay Dye Reagent Concentrate #5000006) and samples prepared in 1× lithium dodecyl sulfate sample buffer final concentration (NuPage LDS Sample buffer 4× Invitrogen, #NP0008). When not deployed immediately, lysates were snap-frozen in liquid nitrogen and stored at −80°C until use.
Cell extracts were mixed with a quarter of a volume of NuPage LDS Sample buffer 4× Invitrogen and heated at 95°C for 5 min. […] At the end of electrophoresis, proteins were electrophoretically transferred onto the nitrocellulose membrane (GE Healthcare, Amersham Protran Supported 0.45 µm NC) at 100 V for 90 min on ice in the transfer buffer (48 mM Tris–HCl and 39 mM glycine supplemented with 20% methanol). Transferred membrane was blocked with 5% (w/v) skim milk powder dissolved in TBS-T [20 mM Tris–HCl, pH 7.5, 150 mM NaCl and 0.1% (v/v) Tween 20] at room temperature for 1 h. […]

[2] = tested on: LRRK2 mediated phosphorylation of Rab10 at Thr73; assay: Rab10 Thr73 phospho-immunoblot in wild-type MEFs; assay type: cell-based, mouse; conditions: for IC50: Mus musculus
Description: Wild-type and homozygous LRRK2 [R1441C] […] All cells were grown at 37°C, 5% (by vol) CO2 in a humidified atmosphere and regularly tested for mycoplasma contamination.
as §1
Lysates were incubated on ice for 30 min and clarified by centrifugation at 20 800×g at 4°C for 20 min. Supernatants were quantified by Bradford assay (Bio-Rad Protein Assay Dye Reagent Concentrate #5000006) and samples prepared in 1× lithium dodecyl sulfate sample buffer final concentration (NuPage LDS Sample buffer 4× Invitrogen, #NP0008). When not deployed immediately, lysates were snap-frozen in liquid nitrogen and stored at −80°C until use.
Cell extracts were mixed with a quarter of a volume of NuPage LDS Sample buffer 4× Invitrogen and heated at 95°C for 5 min. […] At the end of electrophoresis, proteins were electrophoretically transferred onto the nitrocellulose membrane (GE Healthcare, Amersham Protran Supported 0.45 µm NC) at 100 V for 90 min on ice in the transfer buffer (48 mM Tris–HCl and 39 mM glycine supplemented with 20% methanol). Transferred membrane was blocked with 5% (w/v) skim milk powder dissolved in TBS-T [20 mM Tris–HCl, pH 7.5, 150 mM NaCl and 0.1% (v/v) Tween 20] at room temperature for 1 h. The membrane was typically cropped into three pieces, namely the ‘top piece’ (from the top of the membrane to 75 kDa), the ‘middle piece’ (between 75 and 30 kDa) and the ‘bottom piece’ (from 30 kDa to the bottom of the membrane). All primary antibodies were used at 1 μg/ml final concentration and incubated in TBS-T containing 5% (by mass) bovine serum albumin with exception of α-tubulin and GAPDH antibodies that were diluted 1 : 5000 and 1 : 2000, respectively. The top piece was incubated with the indicated rabbit anti-LRRK2 phosphorylation site antibody multiplexed with mouse anti-LRRK2 C-terminus total antibody. The middle piece was incubated with mouse anti-GAPDH or anti-α-tubulin antibody. The bottom pieces were incubated with indicated total and phospho-Rab antibodies. Membranes were incubated in primary antibody overnight at 4°C. Prior to secondary antibody incubation, membranes were washed three times with TBS-T for 10 min each. […] Membranes were washed with TBS-T for three times with a 10 min incubation for each wash. Protein bands were acquired via near infrared fluorescent detection using the Odyssey CLx imaging system and quantified using the Image Studio software.

Cc1ccc(C(=O)Nc2ccc(CN3CCN(C)CC3)c(C(F)(F)F)c2)cc1C#Cc1cnc2[nH]ncc2c1 [GZD-824]
time at which Ser935 phosphorylation plateaued ([1]; LRRK2[R1441C] cells, 1 μM): 160 min
time by which Ser935 phosphorylation increased ([1]; LRRK2[R1441C] cells, 1 μM): ≤ 40 min
effect on Ser935 phosphorylation in LRRK2[R1441C] knock-in cells ([1]; dose and time dependent): rescue Ser935 phosphorylation
IC50 ([2]; 2 h, Figure 4, read-out: IC50 for dephosphorylation of Rab10, wild type MEFs (estimate in text)): 70 nM
IC50 ([2]; 2 h, wild type MEFs littermate matched to LRRK2[G2019S], 2 h, panel (B), read-out: LRRK2 WT Rab10 pThr73 IC50): 65.9 nM
IC50 ([2]; 2 h, wild type MEFs littermate matched to LRRK2[R1441C], 2 h, panel (A), read-out: LRRK2 WT Rab10 pThr73 IC50): 86.5 nM
IC50 ([2]; 2 h, wild-type MEFs, 2 h, Figure 2A, read-out: IC50 inhibition of Rab10 phosphorylation): ~300 nM
Rab10 phosphorylation level after treatment ([2]; wild-type MEFs, 1 μM, 2 h): almost background levels; also recorded: almost basal levels
Rab10 phosphorylation over 24 h time course ([2]; wild-type MEFs, 1 μM, 24 h): remained suppressed
time to 50% reduction of Rab10 phosphorylation ([2]; wild-type MEFs, 1 μM, Figure 2C): ~10 min

— article PMC8589421, “Impact of Type II LRRK2 inhibitors on signaling and mitophagy” (Biochemical Journal, 2021)
